Measurements: patent US6469065B1, “Nitrosated and nitrosylated α-adrenergic receptor antagonist, compositions and methods of use” (NitroMed, Inc., priority 1996, dated 2002)

Experiments:
anesthetized rabbit [1] = test: In vivo Comparative Erectile Responses—II: intracavernosal blood pressure (ICP) and duration; design: species or system White New Zealand male rabbits
Procedure: White New Zealand male rabbits (2.6-3.0 kg) were anesthetized with pentobarbital sodium (30 mg/kg). The femoral artery was exposed and indwelled with PE 50 tubing connected to a transducer for recording systemic arterial blood pressure. The ventral aspect of the penis was then exposed via surgical cut and intracavernosal blood pressure was measured using a 23 gauge needle inserted to the corpus cavernosum. The contralateral corpus cavemosum was implanted with a 23 gauge needle for the administration of drugs.
Following all surgical procedures, rabbits were allowed to rest for 10 minutes during which intracavernosal blood pressure (ICP) and mean arterial blood pressure (MABP) were continuously recorded.
Drugs at various concentrations were prepared as aqueous solution (injection volume of 200 μL). Following drug injection the tubing was flushed with 100 μL distilled water. All drug treatments were administered after stable intracavernosal and systemic blood pressures were established. If an increase in intracavernosal blood pressure (ICP) was observed, the effect was monitored throughout its entire duration.
The following parameters were obtained from each experimental recording: (i) Maximum ICP (mm Hg), (ii) Duration (minutes), defined as the time in minutes, that the increase in ICP is greater than the 50% difference between baseline and maximum response. Data were analyzed using ANOVA statistical analysis (p<0.05).

anesthetized rabbit [2] = test: In Vivo Comparative Erectile Responses—I: intracavernosal pressure after intracavernosal injection; design: species or system Male New Zealand white rabbits
Procedure: (§1) Male New Zealand white rabbits weighing 2.5 kg were used as the animal model. Animals were first relaxed with an i.m. injection of 25 mg/kg ketamine prior to anesthesia with a bolus i.v. injection of 10 mg/kg Profol and maintained with i.v. infusion at 0.5 mg/kg/minutes. Ventilation of the animals was performed with 1% halothane plus 0.8 L/min O2 and 1 L/min N2O. A 22 gauge angiocatheter was placed in the femoral artery for measurement of systemic blood pressure. A dorsal incision was made in the penis and the corpora cavemosum exposed and cannulated with a 21 gauge butterfly needle to measure intracavernosal pressure.
(§2) Drugs at various concentrations were delivered intracavernosally at a volume of 150 μl through a 25 gauge needle. A 150 μl solution of a mixture of papaverine ([…]), phentolamine ([…]) and prostaglandin El (10 μg/ml) (pap/phent/PGE1) was injected in the corpora as a standard solution for comparison with the response of yohimbine, Example 1, Example 2, and the combination of yohimbine and Example 1. This pap/phent/PGE1 mixture is considered to cause a maximal erection-inducing effect.

anesthetized rabbit [3] = test: In Vivo Comparative Erectile Responses—I: systemic blood pressure after intracavernosal injection; design: species or system Male New Zealand white rabbits; conditions: 500 μg, FIG. 5A
Procedure: as §1, §2

Compound: 4-[2-(Dimethylamino)ethoxy]-2-methyl-5-(methylethyl)phenyl 2-({N-[2-methyl-2-(nitrosothio)propyl]carbamoyl}methoxy)acetate, Fumaric Acid Salt [Example 9]
- doses needed to produce a robust increase of ICP (anesthetized rabbit [1]; 0.2-1.6 mg tested, FIG. 8 to FIG. 11): lower than the doses of Example 10
- duration of the erectile response (anesthetized rabbit [1]; 0.2-1.6 mg tested, FIG. 9): somewhat shorter than that of Example 10

Compound: Cc1cc(OCCN(C)C)c(C(C)C)cc1OC(=O)CCC(=O)OCCC1(SN=O)C2CC3CC(C2)CC1C3.O=C(O)/C=C/C(=O)O (centres unmarked) [Example 10, 4-[2-(dimethylamino)ethoxy]-2-methyl-5-(methylethyl)phenyl 2-[2-(nitrosothio)adamantan-2-yl]ethyl butane-1,4-dioate, Fumaric Acid Salt]
- peak erectile response, increase of ICP (magnitude) (anesthetized rabbit [1]; 1.07 mg, FIG. 10): moderate
- duration of the erectile response (anesthetized rabbit [1]; 1.07 mg, FIG. 11): short-lasting
- duration of increase in intracavernosal pressure (anesthetized rabbit [1]; 2.13 mg): robust effect
- magnitude of increase in intracavernosal pressure (anesthetized rabbit [1]; 2.13 mg): robust effect
- duration of increase in intracavernosal pressure (anesthetized rabbit [1]; 4.26 mg): robust effect
- duration of the erectile response (anesthetized rabbit [1]; 4.26 mg): exceeded 120 minutes
- magnitude of increase in intracavernosal pressure (anesthetized rabbit [1]; 4.26 mg): robust effect

Compound: Cc1cc(OCCN(C)C)c(C(C)C)cc1OC(=O)CC(C)(C)SN=O.Cl [Example 6, 4-[2-(Dimethylamino)ethoxy]-2-methyl-5-(methylethyl)phenyl 3-methyl-3-(nitrosothio)butanoate Hydrochloride]
- percent peak erectile response relative to pap/phent/PGE1 (anesthetized rabbit [2]; 1 mg dose): more efficacious than 1 mg moxisylyte
- duration of the erectile response (anesthetized rabbit [2]; 1 mg, FIG. 7): longer duration of erectile response compared to 1 mg moxisylyte
- duration of the erectile response (anesthetized rabbit [2]; 2 mg, FIG. 7): much longer duration of action compared to 2 mg moxisylyte

Compound: COC(=O)[C@@H]1[C@H]2C[C@H]3c4[nH]c5ccccc5c4CCN3C[C@@H]2CC[C@@H]1O [yohimbine, reference compound]
- percent peak erectile response relative to pap/phent/PGE1 (anesthetized rabbit [2]; 150 μg and 500 μg, FIG. 1): dose dependently induced erectile response
- duration of the erectile response (anesthetized rabbit [2]; submaximal (150 μg) and maximal (500 μg) efficacy doses, FIG. 2): very short duration of action

Compound: 2-Acyl-17α(3-methyl-3-(nitrosothio)butanoxy)yohimban-16α-carboxylic Acid methyl ester hydrochloride Salt [Example 2]
- effect on systemic blood pressure (anesthetized rabbit [3]): did not produce any effect on systemic blood pressure
- duration of the erectile response (anesthetized rabbit [2]; 500 μg and 1 mg, FIG. 4): longer duration of action compared to yohimbine
- percent peak erectile response relative to pap/phent/PGE1 (anesthetized rabbit [2]; 500 μg dose): equipotent to the standard dose of pap/phent/PGE1
- percent peak erectile response relative to pap/phent/PGE1 (anesthetized rabbit [2]; 1 mg dose): at least equal to or more efficacious than the standard dose of the pap/phent/PGE1 mixture

Compound: N[C@@H](CCC(=O)N[C@@H](CSN=O)C(=O)NCC(=O)O)C(=O)O [Example 1, 4-(N-{(1R)-1-[N-(carboxymethyl)carbamoyl]-2-(nitrosothio)ethyl}carbamoyl)(2S)-2-aminobutanoic Acid]
- percent peak erectile response relative to pap/phent/PGE1 (anesthetized rabbit [2]; 500 μg dose): near maximal response
- duration of the erectile response (anesthetized rabbit [2]; 500 μg, FIG. 2): much longer duration of action
